Measurements: US20240108634A1, “COMPOSITIONS AND METHODS FOR INHIBITING YAP” (The United States Government as represented by the …, priority 2021, published 2024)

Assays:
full-length human YAP1 = target: T1, full-length human YAP1 (Homo sapiens, UniProt P46937); test: Inhibitor-coupled bead binding of recombinant HA-tagged YAP; settings: immunoblot of bound HA-YAP
T1 construct: purified recombinant HA-tagged full-length human YAP1; made in house
Method: FIGS. 1A-G show the identification of a YAP1-TEAD1 binding interface inhibitor. […] The Gal4 DBD was fused to residues 50-171 of human YAP1 and the Gal4 AD was fused to residues 194-411 of human TEAD1. These fusions were expressed in yeast containing reporters harboring Gal4 upstream activating sequences (UAS). […] Yeast expressing either p53-DBD and SV40 large T antigen-AD fusions or YAP1-DBD and TEAD1-AD fusions were plated on selective media. Compounds were pinned onto the plate surfaces by robotic transfer and subsequently examined for halo formation (indicated by red circles). […] Pull-down products were analyzed by SDS-PAGE and silver staining. […] Raw binding sensorgrams obtained at each concentration were fitted to a 1:1 binding model and Kon, Koff and KD were calculated by simultaneous non-linear regression analyses.
Protein and mRNA analyses, immunoprecipitation, in vitro bead-coupled inhibitor binding assays and HPLC analyses. […] Antigen-antibody complexes were detected using appropriate horseradish peroxidase-conjugated secondary antibodies (GE Healthcare) and enhanced chemiluminescence (Amersham ECL Prime). […] For quantitative RT-PCR, extraction of RNA was performed using Trizol® (Life Technologies). Total RNA was then quantified and integrity assessed using an Agilent 2100 Bioanalyzer (Agilent Technology). […]

YAP-TEAD interaction = target: T2, YAP-TEAD interaction (Homo sapiens, UniProt P46937); test: Co-immunoprecipitation of myc-TEAD with HA-YAP from treated LN229 cells; type: cell-based; settings: LN229 cells, 24 h
T2 construct: expressed in transfected cells; host or cells: LN229
Method: FIGS. 1A-G show the identification of a YAP1-TEAD1 binding interface inhibitor. […] The Gal4 DBD was fused to residues 50-171 of human YAP1 and the Gal4 AD was fused to residues 194-411 of human TEAD1. These fusions were expressed in yeast containing reporters harboring Gal4 upstream activating sequences (UAS). […] Yeast expressing either p53-DBD and SV40 large T antigen-AD fusions or YAP1-DBD and TEAD1-AD fusions were plated on selective media. Compounds were pinned onto the plate surfaces by robotic transfer and subsequently examined for halo formation (indicated by red circles). Compounds inhibiting YAP1-TEAD1 mediated growth on selective media while having no effect on p53-T antigen mediated yeast growth were considered specific. Compounds which blocked the growth of both strains were considered nonspecific and were classified as having general antifungal properties. […] His-tagged YAP (amino acids 50-171 of Accession No. NP_006097) was used in a GST pull-down assay using GST-TEAD (amino acids 194-411 of Accession No. NP_068780) immobilized on glutathione resin. Pull-down products were analyzed by SDS-PAGE and silver staining. […] Cells treated with antimycin A are shown as a negative control. […] Raw binding sensorgrams obtained at each concentration were fitted to a 1:1 binding model and Kon, Koff and KD were calculated by simultaneous non-linear regression analyses.
Protein and mRNA analyses, immunoprecipitation, in vitro bead-coupled inhibitor binding assays and HPLC analyses. […] Antigen-antibody complexes were detected using appropriate horseradish peroxidase-conjugated secondary antibodies (GE Healthcare) and enhanced chemiluminescence (Amersham ECL Prime). […] For quantitative RT-PCR, extraction of RNA was performed using Trizol® (Life Technologies). Total RNA was then quantified and integrity assessed using an Agilent 2100 Bioanalyzer (Agilent Technology). […] SYBR® Green quantitative PCR (Millipore Sigma) was performed in triplicate in 96-well optical plates on an ABI Prism 7000 Sequence Detection System (Life Technologies) according to the manufacturer's instructions. […]

T2 sequence (P46937 whole entry): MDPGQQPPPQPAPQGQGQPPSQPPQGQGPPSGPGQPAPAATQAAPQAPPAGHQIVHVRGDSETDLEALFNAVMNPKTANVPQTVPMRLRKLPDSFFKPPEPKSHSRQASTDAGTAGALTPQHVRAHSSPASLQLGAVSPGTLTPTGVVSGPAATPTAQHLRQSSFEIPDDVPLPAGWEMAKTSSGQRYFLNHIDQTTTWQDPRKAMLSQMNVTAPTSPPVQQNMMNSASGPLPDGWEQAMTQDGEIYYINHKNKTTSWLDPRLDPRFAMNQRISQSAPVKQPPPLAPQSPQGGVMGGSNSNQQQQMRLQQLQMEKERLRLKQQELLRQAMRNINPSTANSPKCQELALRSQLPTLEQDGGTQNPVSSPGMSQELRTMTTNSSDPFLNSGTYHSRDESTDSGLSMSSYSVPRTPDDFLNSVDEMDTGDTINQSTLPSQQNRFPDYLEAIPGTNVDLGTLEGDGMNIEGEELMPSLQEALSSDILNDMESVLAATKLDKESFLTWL
T1 sequence (P46937 whole entry): as above

| Binding of YAP to compound-coupled beads (full-length human YAP1) | Molecule | Cell treatment concentration required for observable blockade of the interaction (YAP-TEAD interaction) | Inhibition of HA-YAP/myc-TEAD interaction at equimolar concentrations (YAP-TEAD interaction; equimolar to NSC682769) |
| --- | --- | --- | --- |
| no significant binding | COc1ccc(CN2C(=O)c3ccccc3C2=O)c(OC)c1 [IRES-J007, reference compound] |  |  |
|  | verteporfin | 4 µM | ineffective |
